The text below walks through data of patent US11730720B2, “ALK5 inhibitors” (THERAVANCE BIOPHARMA R&D IP, LLC, priority 2018, dated 2023).

Assay [1] addresses T1, recombinant human ALK5 (TGF-βR1) protein (Homo sapiens, UniProt P36897).
T1 construct: purchased Life Technologies PR9075A
T1 sequence (P36897 34-503): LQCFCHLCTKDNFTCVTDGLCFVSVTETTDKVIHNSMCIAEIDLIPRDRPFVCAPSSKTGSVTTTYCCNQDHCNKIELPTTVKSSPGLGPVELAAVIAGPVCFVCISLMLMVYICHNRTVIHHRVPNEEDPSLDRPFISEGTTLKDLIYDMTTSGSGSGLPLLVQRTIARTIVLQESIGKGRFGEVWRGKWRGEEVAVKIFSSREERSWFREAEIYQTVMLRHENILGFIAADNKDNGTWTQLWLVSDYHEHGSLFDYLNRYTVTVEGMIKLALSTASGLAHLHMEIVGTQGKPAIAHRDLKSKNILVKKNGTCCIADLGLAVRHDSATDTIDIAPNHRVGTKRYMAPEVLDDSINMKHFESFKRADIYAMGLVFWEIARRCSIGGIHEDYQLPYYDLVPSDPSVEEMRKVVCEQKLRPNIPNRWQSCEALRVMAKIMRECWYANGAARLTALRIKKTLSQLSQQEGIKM
Kind of assay: Biochemical ALK5 (TGF-βR1) assay to measure pKi (LANCE Ultra ULight kinase assay). To be noted: apparent pKi, converted from pIC50 using the Cheng-Prusoff equation. A digest of the protocol:
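TR-FRET kinase format: compound dose range 10 μM–25 pM equilibrated 60 min with human ALK5 and ULight-labelled topoisomerase 2α peptide in HEPES/MgCl2 buffer pH 7.5 with DTT. Reaction started with ATP (125 μM stock, 5× final), 60 min at 37° C, stopped with EDTA/Eu-anti-phospho antibody; pKi derived from pIC50 via Cheng-Prusoff.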

In assay [2] the test system is TGF-β-stimulated SMAD3 phosphorylation in BEAS-2B cells. The assay is described as follows: Cellular ALK5 potency assay, inhibition of TGF-β stimulated pSMAD3 formation in BEAS-2B cells. It is filed as cell-based. To be noted: Homo sapiens, inhibition of TGF-β (10 ng/mL) stimulated pSMAD3 formation, 1 hour compound incubation, read-out: BEAS2B pIC50 (converted). The method in brief: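 Phospho-SMAD3 was quantified by AlphaLISA in lysates of human lung epithelial BEAS-2B cells. Compound was added 1 h (37 °C, HEPES/BSA-supplemented HBSS) before a 30 min challenge with 10 ng/mL TGF-β. Values are pIC50 relative to stimulated cells without compound.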

As for `CC(C)N1CCN(CCNc2cnc3ccc(-c4nc[nH]c4-c4ccc(F)c(F)c4)nc3c2)CC1` [Compound 9-2, 6-[5-(3,4-difluorophenyl)-1H-imidazol-4-yl]-N-[2-(4-isopropylpiperazin-1-yl)ethyl]-1,5-naphthyridin-3-amine], the Ki in assay [1] is 3.98 to 31.6 nM. Moreover, the IC50 in assay [2] is 25.1 to 158 nM.

In the case of `CNCCn1cc(-c2cnc3ccc(-c4nc[nH]c4-c4ccc(F)c(F)c4)nc3c2)cn1` [Compound 9-3, 2-(4-(6-(5-(3,4-difluorophenyl)-1H-imidazol-4-yl)-1,5-naphthyridin-3-yl)-1H-pyrazol-1-yl)-N-methylethan-1-amine], the Ki in assay [1] is no more than 0.0316 nM. Further, the IC50 in assay [2] was no more than 20 nM.

Consider `Fc1ccc(-c2n[nH]cc2-c2ccc3ncc(-c4cn[nH]c4)cc3n2)c(F)c1` [Compound 10-1, 2-(3-(2,4-difluorophenyl)-1H-pyrazol-4-yl)-7-(1H-pyrazol-4-yl)-1,5-naphthyridine], for which the Ki in assay [1] was 0.0398 to 0.316 nM. The IC50 in assay [2] was no more than 20 nM.

For the compound `CC(C)N1CCN(CCNc2cnc3ccc(-c4c[nH]nc4-c4ccc(F)cc4F)nc3c2)CC1` [Compound 10-2, 6-(3-(2,4-difluorophenyl)-1H-pyrazol-4-yl)-N-(2-(4-isopropylpiperazin-1-yl)ethyl)-1,5-naphthyridin-3-amine], the Ki in assay [1] is 3.98 to 31.6 nM. For the same compound, the IC50 in assay [2] is 25.1 to 158 nM.

`CN1CCN(C2CCN(c3cnc4ccc(-c5c[nH]nc5-c5ccccc5F)nc4c3)CC2)CC1` [Compound 11-1, 2-(3-(2-fluorophenyl)-1H-pyrazol-4-yl)-7-(4-(4-methylpiperazin-1-yl)piperidin-1-yl)-1,5-naphthyridine]: the Ki in assay [1] was 0.398 to 3.16 nM. In assay [2], the IC50 was 25.1 to 158 nM.

For `NC1CCN(c2cnc3ccc(-c4c[nH]nc4-c4ccccc4F)nc3c2)C1` (stereo not shown) [Compound 11-2, 1-(6-(3-(2-fluorophenyl)-1H-pyrazol-4-yl)-1,5-naphthyridin-3-yl)pyrrolidin-3-amine], in assay [1], the Ki is 0.398 to 3.16 nM. Also, the IC50 in assay [2] is 25.1 to 158 nM.

Regarding `CC(C)N1CCN(c2cnc3ccc(-c4c[nH]nc4-c4ccccc4F)nc3c2)CC1` [Compound 11-3, 2-[3-(2-fluorophenyl)-1H-pyrazol-4-yl]-7-(4-isopropylpiperazin-1-yl)-1,5-naphthyridine], the Ki in assay [1] was 3.98 to 31.6 nM. Moreover, the IC50 in assay [2] is 25.1 to 158 nM.

As to `Fc1ccccc1-c1n[nH]cc1-c1ccc2ncc(-c3cccnc3)cc2n1` [Compound 11-4, 2-[3-(2-fluorophenyl)-1H-pyrazol-4-yl]-7-(3-pyridyl)-1,5-naphthyridine], the Ki in assay [1] was 3.98 to 31.6 nM. Besides, in assay [2], the IC50 was 25.1 to 158 nM.

As to `COC(=O)c1cnc2ccc(-c3[nH]nnc3-c3ccccc3F)nc2c1` [Compound 12-1, methyl 6-(4-(2-fluorophenyl)-1H-1,2,3-triazol-5-yl)-1,5-naphthyridine-3-carboxylate], the Ki in assay [1] was 3.98 to 31.6 nM. Besides, the IC50 in assay [2] was 200 to 1260 nM.

As for `Fc1ccccc1-c1[nH]nnc1-c1ccc2ncc(-c3c[nH]nc3C(F)(F)F)cc2n1` [Compound 12-2, 2-[5-(2-fluorophenyl)-1H-triazol-4-yl]-7-[3-(trifluoromethyl)-1H-pyrazol-4-yl]-1,5-naphthyridine], the Ki in assay [1] was 3.98 to 31.6 nM. Also, the IC50 in assay [2] was 25.1 to 158 nM.

As for `CNCCn1cc(-c2cnc3ccc(-c4c[nH]nc4-c4cc(O)ccc4C)nc3c2)cn1` [Compound 13-1, 4-methyl-3-(4-(7-(1-(2-(methylamino)ethyl)-1H-pyrazol-4-yl)-1,5-naphthyridin-2-yl)-1H-pyrazol-3-yl)phenol], in assay [1], the Ki was 0.398 to 3.16 nM. Also, the IC50 in assay [2] was 200 to 1260 nM.

In the case of `CNC1CCN(c2cnc3ccc(-c4c[nH]nc4-c4cccc(COC)c4)nc3c2)CC1` [Compound 14-1, 1-(6-(3-(3-(methoxymethyl)phenyl)-1H-pyrazol-4-yl)-1,5-naphthyridin-3-yl)-N-methylpiperidin-4-amine], the Ki in assay [1] is 3.98 to 31.6 nM. For the same compound, the IC50 in assay [2] was 25.1 to 158 nM.

As to `COCc1cccc(-c2n[nH]cc2-c2ccc3ncc(N4CCC(N5CCN(C)CC5)CC4)cc3n2)c1` [Compound 14-2, 2-[3-(3-(methoxymethyl)phenyl]-1H-pyrazol-4-yl]-7-[4-(4-methylpiperazin-1-yl)-1-piperidyl]-1,5-naphthyridine], in assay [1], the Ki is 0.398 to 3.16 nM. Besides, the IC50 in assay [2] is 25.1 to 158 nM.

For the compound `COCc1cccc(-c2n[nH]cc2-c2ccc3ncc(N4CCC(N5CCCC5)CC4)cc3n2)c1` [Compound 14-3, 2-[3-[3-(methoxymethyl)phenyl]-1H-pyrazol-4-yl]-7-(4-pyrrolidin-1-yl-1-piperidyl)-1,5-naphthyridine], the Ki in assay [1] is 3.98 to 31.6 nM. For the same compound, the IC50 in assay [2] is 25.1 to 158 nM.

Turning to `COCc1cccc(-c2n[nH]cc2-c2ccc3ncc(N4CCN(C(C)C)CC4)cc3n2)c1` [Compound 14-5, 7-(4-isopropylpiperazin-1-yl)-2-[3-[3-(methoxymethyl)phenyl]-1H-pyrazol-4-yl]-1,5-naphthyridine], the Ki in assay [1] is 3.98 to 31.6 nM. Also, the IC50 in assay [2] is 25.1 to 158 nM.

Turning to `COCc1cccc(-c2n[nH]cc2-c2ccc3ncc(N4CCC(N)C4)cc3n2)c1` (stereo not shown) [Compound 14-6, 1-[6-[3-[3-(methoxymethyl)phenyl]-1H-pyrazol-4-yl]-1,5-naphthyridin-3-yl]pyrrolidin-3-amine], the Ki in assay [1] is 0.398 to 3.16 nM. The IC50 in assay [2] was 25.1 to 158 nM.

Consider `COCc1cccc(-c2n[nH]cc2-c2ccc3ncc(N4CCC(N(C)C)CC4)cc3n2)c1` [Compound 14-7, 1-[6-[3-[3-(methoxymethyl)phenyl]-1H-pyrazol-4-yl]-1,5-naphthyridin-3-yl]-N,N-dimethyl-piperidin-4-amine], for which, in assay [1], the Ki is 3.98 to 31.6 nM. For the same compound, the IC50 in assay [2] is 25.1 to 158 nM.

As for `CNCCn1cc(-c2cnc3ccc(-c4c[nH]nc4-c4cccc(COC)c4)nc3c2)cn1` [Compound 14-8, 2-(4-(6-(3-(3-(methoxymethyl)phenyl)-1H-pyrazol-4-yl)-1,5-naphthyridin-3-yl)-1H-pyrazol-1-yl)-N-methylethan-1-amine], the Ki in assay [1] was 0.0398 to 0.316 nM. In addition, the IC50 in assay [2] was 25.1 to 158 nM.

For the compound `COCc1cccc(-c2n[nH]cc2-c2ccc3ncc(-c4cn[nH]c4)cc3n2)c1` [Compound 14-9, 2-[3-[3-(methoxymethyl)phenyl]-1H-pyrazol-4-yl]-7-(1H-pyrazol-4-yl)-1,5-naphthyridine], the Ki in assay [1] was 0.398 to 3.16 nM. The IC50 in assay [2] is no more than 20 nM.

With `CNCCn1ccc(-c2cnc3ccc(-c4c[nH]nc4-c4cccc(COC)c4)nc3c2)n1` [Compound 14-10, 2-[3-[6-[3-[3-(methoxymethyl)phenyl]-1H-pyrazol-4-yl]-1,5-naphthyridin-3-yl]pyrazol-1-yl]-N-methyl-ethanamine], the Ki in assay [1] is 0.398 to 3.16 nM. The IC50 in assay [2] was 25.1 to 158 nM.

In the case of `COCc1cccc(-c2n[nH]cc2-c2ccc3ncc(-c4cnn(CC5CNC5)c4)cc3n2)c1` [Compound 14-11, 7-[1-(azetidin-3-ylmethyl)pyrazol-4-yl]-2-[3-[3-(methoxymethyl)phenyl]-1H-pyrazol-4-yl]-1,5-naphthyridine], the Ki in assay [1] was 0.0398 to 0.316 nM. The IC50 in assay [2] is 25.1 to 158 nM.

In the case of `COCc1cccc(-c2n[nH]cc2-c2ccc3ncc(C4=CCC(N)CC4)cc3n2)c1` (stereo not shown) [Compound 14-12, 4-[6-[3-[3-(methoxymethyl)phenyl]-1H-pyrazol-4-yl]-1,5-naphthyridin-3-yl]cyclohex-3-en-1-amine], the Ki in assay [1] is 0.398 to 3.16 nM. The IC50 in assay [2] was 25.1 to 158 nM.

For the compound `COCc1cccc(-c2n[nH]cc2-c2ccc3ncc(-c4cnn(CCN)c4)cc3n2)c1` [Compound 14-13, 2-[4-[6-[3-[3-(methoxymethyl)phenyl]-1H-pyrazol-4-yl]-1,5-naphthyridin-3-yl]pyrazol-1-yl]ethanamine], the Ki in assay [1] is 0.0398 to 0.316 nM. Further, the IC50 in assay [2] was 25.1 to 158 nM.

Turning to `COCc1cccc(-c2n[nH]cc2-c2ccc3ncc(C4=CCC(N(C)C)CC4)cc3n2)c1` (stereo not shown) [Compound 14-14, 4-(6-(3-(3-(methoxymethyl)phenyl)-1H-pyrazol-4-yl)-1,5-naphthyridin-3-yl)-N,N-dimethylcyclohex-3-en-1-amine], the Ki in assay [1] was 0.0398 to 0.316 nM. Besides, in assay [2], the IC50 is 25.1 to 158 nM.

Take `CNCCn1cc(-c2cnc3ccc(-c4c[nH]nc4-c4cccc(COC)c4)nc3c2)nn1` [Compound 14-15, 2-(4-(6-(3-(3-(methoxymethyl)phenyl)-1H-pyrazol-4-yl)-1,5-naphthyridin-3-yl)-1H-1,2,3-triazol-1-yl)-N-methylethan-1-amine]: in assay [1], the Ki was 0.398 to 3.16 nM. Besides, the IC50 in assay [2] was 25.1 to 158 nM.

As for `COCc1cccc(-c2n[nH]cc2-c2ccc3ncc(N4CCNCC4)cc3n2)c1` [Compound 14-16, 2-[3-[3-(methoxymethyl)phenyl]-1H-pyrazol-4-yl]-7-piperazin-1-yl-1,5-naphthyridine], the Ki in assay [1] is 3.98 to 31.6 nM. Further, in assay [2], the IC50 is 200 to 1260 nM.
